This passage reports IC50 results from US8901118B2, “Compounds and methods for kinase modulation, and indications therefor” (Plexxikon Inc., priority 2010, dated 2014).

Bounds are passed on as bounds.

One assay has as its system SKNSH cells. The assay is described as follows: SKNSH (human neuroblastoma) cell proliferation assay (ATPlite). Conditions: SK-N-SH, read-out: Inhibition of Cell Proliferation IC50, SKNSH. Type of assay: cell-based. In outline:
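Fms/Trk inhibitor efficacy was tested by proliferation of SKNSH neuroblastoma cells. After 3 days of compound exposure at 37° C. in 5% CO2, 20 μL per well of ATPlite 1 step reagent was added, plates sat 10 minutes at room temperature, and luminescence, proportional to cell number, was read on a Safire reader to derive IC50.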

For the next assay, the target named is T1, BCR-NTRK3 BaF3 cells (Homo sapiens, UniProt Q16288).
T1 construct: fused on or other part: P11274 (Breakpoint cluster region protein)
The experiment in a line: BaF3 BCR-NTRK3 cell proliferation assay (ATPlite). To be noted: read-out: Inhibition of Cell Proliferation IC50, BCR/BaF3 TrkC. Format: cell-based. In outline:
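Cells are plated overnight: BaF3 at 10,000/well in G418 medium without WEHI/IL-3, MV-4-11 at 25,000/well in IMDM with 10% FBS. An 8-point 1:3 compound titration (10 μM top) is then added, and plates are incubated 3 days at 37 °C before ATPlite readout and IC50 determination.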
Background: Cellular ATP, detected with luciferase, serves as a proxy for viable cell number.

A further assay deals with CYP3A4(BFC) (Homo sapiens, UniProt P08684). The experiment in a line: CYP3A4(BFC) inhibition. Type of assay: in vitro ADME. Conditions: CYP3A4, substrate BFC; read-out: Cyp IC50 3A4(BFC). In outline:
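This fluorescence assay tracks how test compounds reduce CYP3A4 turnover of BFC, with enzyme and substrate from BD Biosciences. A 10-point 1:1 dilution series in cofactor mix (1.3% NADPH Regeneration Solution A, 1.04% Solution B, 5% acetonitrile, 0.05% DMSO) was dispensed at 10 μL into 384 well plates, preincubated 10 minutes at 37° C, then incubated 30 min and read on a Tecan Safire 2.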

The next assay addresses T2, CYP1A2 (Homo sapiens, UniProt P05177).
T2 sequence (P05177 1-516): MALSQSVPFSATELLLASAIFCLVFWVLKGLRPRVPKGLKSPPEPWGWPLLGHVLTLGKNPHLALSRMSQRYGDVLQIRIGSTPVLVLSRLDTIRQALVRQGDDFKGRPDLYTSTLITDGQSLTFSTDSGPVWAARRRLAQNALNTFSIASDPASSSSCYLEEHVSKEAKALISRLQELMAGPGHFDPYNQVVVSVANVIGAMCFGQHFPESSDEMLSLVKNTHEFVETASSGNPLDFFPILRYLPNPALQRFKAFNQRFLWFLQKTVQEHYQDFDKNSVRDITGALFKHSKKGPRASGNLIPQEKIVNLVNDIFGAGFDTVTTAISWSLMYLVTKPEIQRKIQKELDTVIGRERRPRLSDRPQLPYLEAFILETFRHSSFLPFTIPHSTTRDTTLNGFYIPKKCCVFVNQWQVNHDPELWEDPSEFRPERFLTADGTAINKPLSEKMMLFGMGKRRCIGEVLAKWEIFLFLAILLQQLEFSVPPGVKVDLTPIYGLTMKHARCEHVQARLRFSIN
The assay is described as follows: CYP1A2 inhibition (fluorescent substrate CEC). Format: in vitro ADME. Conditions: read-out: Cyp IC50 1A2. In outline:
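10-pt 1:1 dilution series (from 100 mM DMSO stock) in NADPH regen cofactor mix, 5% MeCN; 10 min preincubation at 37 °C. Enzyme reaction 37 °C: 1A2 15 min, 2C9 45 min, 2C19/2D6 30 min. Fluorescence readout; IC50 fit.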

CYP3A4(BFC), sequence (P08684 whole entry): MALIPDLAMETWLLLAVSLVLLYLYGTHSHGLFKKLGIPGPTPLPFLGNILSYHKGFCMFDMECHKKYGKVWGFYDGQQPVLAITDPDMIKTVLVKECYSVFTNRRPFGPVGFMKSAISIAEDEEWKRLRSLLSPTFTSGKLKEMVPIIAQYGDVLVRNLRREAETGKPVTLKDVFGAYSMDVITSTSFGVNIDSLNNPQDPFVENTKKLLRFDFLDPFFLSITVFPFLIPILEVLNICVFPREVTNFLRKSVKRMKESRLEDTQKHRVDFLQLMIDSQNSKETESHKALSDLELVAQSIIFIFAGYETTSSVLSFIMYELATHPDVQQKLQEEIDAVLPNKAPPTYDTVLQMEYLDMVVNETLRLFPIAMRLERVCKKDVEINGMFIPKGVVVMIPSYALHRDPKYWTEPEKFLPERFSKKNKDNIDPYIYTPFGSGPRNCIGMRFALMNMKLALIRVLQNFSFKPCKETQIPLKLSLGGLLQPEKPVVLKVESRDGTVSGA
T1 sequence (Q16288 whole entry, the tested form may be a part): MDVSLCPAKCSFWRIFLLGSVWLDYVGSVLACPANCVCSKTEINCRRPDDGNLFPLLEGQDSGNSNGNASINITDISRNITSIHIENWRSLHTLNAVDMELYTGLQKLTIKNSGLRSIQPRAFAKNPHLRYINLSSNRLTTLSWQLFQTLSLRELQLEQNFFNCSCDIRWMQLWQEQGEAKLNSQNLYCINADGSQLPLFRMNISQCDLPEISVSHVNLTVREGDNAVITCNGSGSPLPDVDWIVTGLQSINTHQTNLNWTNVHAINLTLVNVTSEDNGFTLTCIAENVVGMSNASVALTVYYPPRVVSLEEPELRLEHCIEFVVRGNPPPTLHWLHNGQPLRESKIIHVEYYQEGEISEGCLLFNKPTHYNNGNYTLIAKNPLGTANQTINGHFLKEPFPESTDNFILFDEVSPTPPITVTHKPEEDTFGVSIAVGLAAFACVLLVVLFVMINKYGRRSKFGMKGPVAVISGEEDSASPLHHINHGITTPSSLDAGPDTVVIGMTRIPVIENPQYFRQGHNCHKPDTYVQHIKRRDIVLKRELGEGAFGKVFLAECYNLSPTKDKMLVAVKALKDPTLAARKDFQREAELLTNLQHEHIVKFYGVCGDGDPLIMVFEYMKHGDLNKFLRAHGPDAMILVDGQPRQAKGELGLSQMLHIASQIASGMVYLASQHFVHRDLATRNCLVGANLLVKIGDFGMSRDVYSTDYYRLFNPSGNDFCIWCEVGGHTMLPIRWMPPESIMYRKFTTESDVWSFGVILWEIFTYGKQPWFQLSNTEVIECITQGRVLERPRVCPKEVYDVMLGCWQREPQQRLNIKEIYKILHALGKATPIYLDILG

For `COc1ccc(Nc2ncc(Cc3c[nH]c4ncc(C)cc34)cn2)cn1` [Compound P-3020, (6-Methoxy-pyridin-3-yl)-[5-(5-methyl-1H-pyrrolo[2,3-b]pyridin-3-ylmethyl)-pyrimidin-2-yl]-amine], the IC50 in the assay with SKNSH cells was under 1 µM; at BCR-NTRK3 BaF3 cells it was under 0.1 µM.

Consider `COc1ccc(Nc2ncc(Cc3c[nH]c4ncc(C)cc34)cn2)cc1` [Compound P-3021, (4-Methoxy-phenyl)-[5-(5-methyl-1H-pyrrolo[2,3-b]pyridin-3-ylmethyl)-pyrimidin-2-yl]-amine], for which the figures for the IC50 in the assay on SKNSH cells and on BCR-NTRK3 BaF3 cells were under 1 µM and under 0.1 µM, respectively.

Regarding `CCCOc1ccc(Nc2ncc(Cc3c[nH]c4ncc(C)cc34)cn2)cc1` [Compound P-3024, [5-(5-Methyl-1H-pyrrolo[2,3-b]pyridin-3-ylmethyl)-pyrimidin-2-yl]-(4-propoxy-phenyl)-amine], the IC50 is under 1 µM in the assay on SKNSH cells and under 0.1 µM on BCR-NTRK3 BaF3 cells.

Consider `CCc1ccc(Nc2ncc(Cc3c[nH]c4ncc(C)cc34)cn2)cc1` [Compound P-3025, (4-Ethyl-phenyl)-[5-(5-methyl-1H-pyrrolo[2,3-b]pyridin-3-ylmethyl)-pyrimidin-2-yl]-amine], for which the IC50 in the assay with SKNSH cells was under 1 µM; on BCR-NTRK3 BaF3 cells, under 0.01 µM.

Take `CCOc1ccc(Nc2ncc(Cc3c[nH]c4ncc(C)cc34)cn2)cc1` [Compound P-3026, (4-Ethoxy-phenyl)-[5-(5-methyl-1H-pyrrolo[2,3-b]pyridin-3-ylmethyl)-pyrimidin-2-yl]-amine]: the IC50 with SKNSH cells was over 25 µM; at BCR-NTRK3 BaF3 cells, under 0.1 µM.

Regarding `CCOc1ccc(Nc2ncc(Cc3c[nH]c4ncc(C)cc34)cn2)cn1` [Compound P-3027, (6-Ethoxy-pyridin-3-yl)-[5-(5-methyl-1H-pyrrolo[2,3-b]pyridin-3-ylmethyl)-pyrimidin-2-yl]-amine], the IC50 was over 25 µM in the assay with SKNSH cells and under 0.1 µM at BCR-NTRK3 BaF3 cells.

For the compound `Cc1cnc2[nH]cc(Cc3cnc(Nc4cc(-c5ccc(F)cc5)n[nH]4)nc3)c2c1` [Compound P-3028, [5-(4-Fluoro-phenyl)-2H-pyrazol-3-yl]-[5-(5-methyl-1H-pyrrolo[2,3-b]pyridin-3-ylmethyl)-pyrimidin-2-yl]-amine], the figures for the IC50 with SKNSH cells and at BCR-NTRK3 BaF3 cells were under 20 µM and under 0.1 µM, respectively.

As for `Cc1cnc2[nH]cc(Cc3cnc(Nc4cc(C(C)(C)C)n[nH]4)nc3)c2c1` [Compound P-3029, (5-tert-Butyl-2H-pyrazol-3-yl)-[5-(5-methyl-1H-pyrrolo[2,3-b]pyridin-3-ylmethyl)-pyrimidin-2-yl]-amine], the IC50 with SKNSH cells was over 25 µM; on BCR-NTRK3 BaF3 cells, under 1 µM.

Take `Cc1cnc2[nH]cc(Cc3cnc(Nc4ccc(C(C)(C)C)cc4)nc3)c2c1` [Compound P-3030, (4-tert-Butyl-phenyl)-[5-(5-methyl-1H-pyrrolo[2,3-b]pyridin-3-ylmethyl)-pyrimidin-2-yl]-amine amine]: the figures for the IC50 with SKNSH cells and on BCR-NTRK3 BaF3 cells were under 0.1 µM and under 0.01 µM, respectively.

On to `Cc1cnc2[nH]cc(Cc3cnc(Nc4ccc(C(O)(C(F)(F)F)C(F)(F)F)cc4)nc3)c2c1` [Compound P-3031, 1,1,1,3,3,3-Hexafluoro-2-{4-[5-(5-methyl-1H-pyrrolo[2,3-b]pyridin-3-ylmethyl)-pyrimidin-2-ylamino]-phenyl}-propan-2-ol], for which the IC50 with SKNSH cells is under 0.1 µM; on BCR-NTRK3 BaF3 cells, under 0.01 µM.

On to `Cc1cnc2[nH]cc(Cc3cnc(Nc4cc(C5CC5)n[nH]4)nc3)c2c1` [Compound P-3032, (5-Cyclopropyl-2H-pyrazol-3-yl)-[5-(5-methyl-1H-pyrrolo[2,3-b]pyridin-3-ylmethyl)-pyrimidin-2-yl]-amine], for which the IC50 in the assay on SKNSH cells and on BCR-NTRK3 BaF3 cells was under 1 µM throughout.

Consider `CSc1ccc(Nc2ncc(Cc3c[nH]c4ncc(C)cc34)cn2)cc1` [Compound P-3033, [5-(5-Methyl-1H-pyrrolo[2,3-b]pyridin-3-ylmethyl)-pyrimidin-2-yl]-(4-methylsulfanyl-phenyl)-amine], for which the IC50 in the assay on SKNSH cells is under 1 µM; on BCR-NTRK3 BaF3 cells, under 0.1 µM.

For the compound `Cc1cnc2[nH]cc(Cc3cnc(Nc4ccc(S(C)(=O)=O)cc4)nc3)c2c1` [Compound P-3034, (4-Methanesulfonyl-phenyl)-[5-(5-methyl-1H-pyrrolo[2,3-b]pyridin-3-ylmethyl)-pyrimidin-2-yl]-amine], the IC50 is under 1 µM in the assay on SKNSH cells and under 0.1 µM on BCR-NTRK3 BaF3 cells.

For `CCn1ccc(Nc2ncc(Cc3c[nH]c4ncc(C)cc34)cn2)n1` [Compound P-3035, (1-Ethyl-1H-pyrazol-3-yl)-[5-(5-methyl-1H-pyrrolo[2,3-b]pyridin-3-ylmethyl)-pyrimidin-2-yl]-amine], the IC50 in the assay with SKNSH cells was under 1 µM; on BCR-NTRK3 BaF3 cells, under 0.1 µM.

Regarding `CCn1cc(Nc2ncc(Cc3c[nH]c4ncc(C)cc34)cn2)cn1` [Compound P-3036, (1-Ethyl-1H-pyrazol-4-yl)-[5-(5-methyl-1H-pyrrolo[2,3-b]pyridin-3-ylmethyl)-pyrimidin-2-yl]-amine], the figures for the IC50 in the assay with SKNSH cells and on BCR-NTRK3 BaF3 cells were under 20 µM and under 1 µM, respectively.

As to `Cc1cnc2[nH]cc(Cc3cnc(Nc4cc(C(F)(F)F)n[nH]4)nc3)c2c1` [Compound P-3037, [5-(5-Methyl-1H-pyrrolo[2,3-b]pyridin-3-ylmethyl)-pyrimidin-2-yl]-(5-trifluoromethyl-2H-pyrazol-3-yl)-amine], the IC50 in the assay on SKNSH cells was over 25 µM; on BCR-NTRK3 BaF3 cells, over 1 µM.

In the case of `Cc1cnc2[nH]cc(Cc3cnc(Nc4cc(OC(C)C)n[nH]4)nc3)c2c1` [Compound P-3038, (5-Isopropoxy-2H-pyrazol-3-yl)-[5-(5-methyl-1H-pyrrolo[2,3-b]pyridin-3-ylmethyl)-pyrimidin-2-yl]-amine], the IC50 in the assay on SKNSH cells was over 25 µM; at BCR-NTRK3 BaF3 cells, under 1 µM.

On to `Cc1ccc(Nc2ccc(Cc3c[nH]c4ncc(Cl)cc34)c(F)n2)cn1` [Compound P-3042, [5-(5-Chloro-1H-pyrrolo[2,3-b]pyridin-3-ylmethyl)-6-fluoro-pyridin-2-yl]-(6-methyl-pyridin-3-yl)-amine], for which the values for the IC50 in the assay on SKNSH cells and on BCR-NTRK3 BaF3 cells were over 1 µM and under 0.1 µM, respectively.

For `CCOc1ccc(Nc2ccc(C(=O)c3c[nH]c4ncc(C)cc34)c(F)n2)cn1` [Compound P-3045, [6-(6-ethoxy-pyridin-3-ylamino)-2-fluoro-pyridin-3-yl]-(5-methyl-1H-pyrrolo[2,3-b]pyridin-3-yl)-methanone], the values for the IC50 with SKNSH cells and at BCR-NTRK3 BaF3 cells were over 25 µM and under 0.1 µM, respectively.

Turning to `CCOc1ncnc2[nH]cc(Cc3ccc(Nc4ccc(Br)nc4)nc3F)c12` [Compound P-4020, (6-Bromo-pyridin-3-yl)-[5-(4-ethoxy-7H-pyrrolo[2,3-d]pyrimidin-5-ylmethyl)-6-fluoro-pyridin-2-yl]-amine], the IC50 was under 1 µM in the assay with SKNSH cells and under 0.1 µM at BCR-NTRK3 BaF3 cells.

In the case of `CCOc1ncnc2[nH]cc(Cc3ccc(Nc4cccnc4)nc3F)c12` [Compound P-4021, [5-(4-Ethoxy-7H-pyrrolo[2,3-d]pyrimidin-5-ylmethyl)-6-fluoro-pyridin-2-yl]-pyridin-3-yl-amine], the IC50 in the assay with SKNSH cells and at BCR-NTRK3 BaF3 cells was under 1 µM each time.

Take `Cc1ccc(Nc2ccc(Cc3c[nH]c4ncnc(C5CC5)c34)c(F)n2)cn1` [Compound P-4030, [5-(4-Cyclopropyl-7H-pyrrolo[2,3-d]pyrimidin-5-ylmethyl)-6-fluoro-pyridin-2-yl]-(6-methyl-pyridin-3-yl)-amine]: the IC50 is over 10 µM on CYP3A4(BFC), over 10 µM on CYP1A2 and under 0.1 µM on BCR-NTRK3 BaF3 cells.

For the compound `Cc1ccc(Nc2ccc(C(=O)c3c[nH]c4ncnc(C5CC5)c34)c(F)n2)cn1` [Compound P-4031, (4-Cyclopropyl-7H-pyrrolo[2,3-d]pyrimidin-5-yl)-[2-fluoro-6-(6-methyl-pyridin-3-ylamino)-pyridin-3-yl]-methanone], the IC50 at CYP3A4(BFC) is over 10 µM; at CYP1A2 it was over 10 µM; on BCR-NTRK3 BaF3 cells, under 0.01 µM.

For `CCn1cc(Nc2ccc(Cc3c[nH]c4ncnc(C5CC5)c34)c(F)n2)cn1` [Compound P-4036, [5-(4-Cyclopropyl-7H-pyrrolo[2,3-d]pyrimidin-5-ylmethyl)-6-fluoro-pyridin-2-yl]-(1-ethyl-1H-pyrazol-4-yl)-amine], the IC50 on CYP3A4(BFC) was 5 to 10 µM; at CYP1A2, 5 to 10 µM; on BCR-NTRK3 BaF3 cells it was under 0.1 µM.
